Test results reported in patent US20090098130A1, “GLUCAGON-LIKE PROTEIN-1 RECEPTOR (GLP-1R) AGONIST COMPOUNDS” (priority 2007, published 2009).
One block for each compound: values may come before it. Non-standard residues stand in square brackets, D forms with d. Residues, ends and D or L forms follow the SMILES beside them. Aib = CC(C)(N)C(=O)O

Key:
pancreatic β cells = assay: glucose-stimulated insulin secretion (GSIS) assay; assay type: cell-based; settings: GA targeting peptide; insulin secretion from pancreatic β cell cultures in vitro with glucose
Experimental: Briefly, glucose and GA targeting peptide was added at various concentrations to pancreatic β cell cultures, and insulin secretion was detected by measuring insulin levels over time. EC50 was calculated for each peptide.
The ability of these GA targeting agent-linker conjugates to stimulate […] secretion in vitro was measured using the GSIS assay described in Example 27. […] Each of these peptides contained a side-chain modified Lys residue according to the scheme illustrated in FIG. 30 at a different position.

m38C2 = settings: competition ELISA against immobilized BSA-conjugated β-diketone 1, read-out: apparent equilibrium dissociation constant; cited from earlier work
h38C2 = settings: competition ELISA against immobilized BSA-conjugated β-diketone 1, read-out: apparent equilibrium dissociation constant; cited from earlier work

SMILES: CC[C@H](C)[C@H](NC(=O)[C@H](Cc1ccccc1)NC(=O)[C@H](CCC(=O)O)NC(=O)[C@H](CCCNC(=N)N)NC(=O)[C@H](C)NC(=O)[C@H](C)NC(=O)[C@H](CCC(N)=O)NC(=O)CNC(=O)[C@H](CCC(=O)O)NC(=O)[C@H](CC(C)C)NC(=O)[C@H](Cc1ccc(O)cc1)NC(=O)[C@H](CO)NC(=O)[C@H](CO)NC(=O)[C@@H](NC(=O)[C@H](CC(=O)O)NC(=O)[C@H](CO)NC(=O)[C@@H](NC(=O)[C@H](Cc1ccccc1)NC(=O)[C@@H](NC(=O)CNC(=O)[C@H](CCC(=O)O)NC(=O)C(C)(C)NC(=O)[C@@H](N)Cc1c[nH]cn1)[C@@H](C)O)[C@@H](C)O)C(C)C)C(=O)N[C@@H](C)C(=O)N[C@@H](Cc1c[nH]c2ccccc12)C(=O)N[C@@H](CC(C)C)C(=O)N[C@H](C(=O)N[C@@H](CCCCN)C(=O)NC(C)(C)C(=O)N[C@@H](CCCNC(=N)N)C(N)=O)C(C)C [SEQ ID NO: 51] (H-H[Aib]EGTFTSDVSSYLEGQAAREFIAWLVK[Aib]R-NH2)
- EC50 (pancreatic β cells): < 10 µM

SMILES: CC[C@H](C)[C@H](NC(=O)[C@H](Cc1ccccc1)NC(=O)[C@H](CCC(=O)O)NC(=O)[C@H](CCCCN)NC(=O)[C@H](C)NC(=O)[C@H](C)NC(=O)[C@H](CCC(N)=O)NC(=O)CNC(=O)[C@H](CCC(=O)O)NC(=O)[C@H](CC(C)C)NC(=O)[C@H](Cc1ccc(O)cc1)NC(=O)[C@H](CO)NC(=O)[C@H](CO)NC(=O)[C@@H](NC(=O)[C@H](CC(=O)O)NC(=O)[C@H](CO)NC(=O)[C@@H](NC(=O)[C@H](Cc1ccccc1)NC(=O)[C@@H](NC(=O)CNC(=O)[C@H](CCC(=O)O)NC(=O)C(C)(C)NC(=O)[C@@H](N)Cc1c[nH]cn1)[C@@H](C)O)[C@@H](C)O)C(C)C)C(=O)N[C@@H](C)C(=O)N[C@@H](Cc1ccccc1)C(=O)N[C@@H](CC(C)C)C(=O)N[C@H](C(=O)N[C@@H](CCCCN)C(=O)NC(C)(C)C(=O)N[C@@H](CCCNC(=N)N)C(N)=O)C(C)C [SEQ ID NO: 53]
- EC50 (pancreatic β cells): < 10 µM

SMILES: CC[C@H](C)[C@H](NC(=O)[C@H](Cc1ccccc1)NC(=O)[C@H](CCC(=O)O)NC(=O)[C@H](CCCCN)NC(=O)[C@H](C)NC(=O)[C@H](C)NC(=O)[C@H](CCC(N)=O)NC(=O)CNC(=O)[C@H](CCC(=O)O)NC(=O)[C@H](CC(C)C)NC(=O)[C@H](Cc1ccc(O)cc1)NC(=O)[C@H](CO)NC(=O)[C@H](CO)NC(=O)[C@@H](NC(=O)[C@H](CC(=O)O)NC(=O)[C@H](CO)NC(=O)[C@@H](NC(=O)[C@H](Cc1ccccc1)NC(=O)[C@@H](NC(=O)CNC(=O)[C@H](CCC(=O)O)NC(=O)C(C)(C)NC(=O)[C@@H](N)Cc1c[nH]cn1)[C@@H](C)O)[C@@H](C)O)C(C)C)C(=O)N[C@@H](C)C(=O)N[C@@H](Cc1c[nH]c2ccccc12)C(=O)N[C@@H](CC(C)C)C(=O)N[C@H](C(=O)N[C@@H](CCCCN)C(=O)NC(C)(C)C(=O)N[C@@H](CCCNC(=N)N)C(N)=O)[C@@H](C)CC [SEQ ID NO: 54]
- EC50 (pancreatic β cells): < 10 µM

SMILES: CC[C@H](C)[C@H](NC(=O)[C@H](Cc1ccccc1)NC(=O)[C@H](CCC(=O)O)NC(=O)[C@H](CCCCN)NC(=O)[C@H](C)NC(=O)[C@H](C)NC(=O)[C@H](CCC(N)=O)NC(=O)CNC(=O)[C@H](CCC(=O)O)NC(=O)[C@H](CC(C)C)NC(=O)[C@H](Cc1ccc(O)cc1)NC(=O)[C@H](CO)NC(=O)[C@H](CO)NC(=O)[C@@H](NC(=O)[C@H](CC(=O)O)NC(=O)[C@H](CO)NC(=O)[C@@H](NC(=O)[C@H](Cc1ccccc1)NC(=O)[C@@H](NC(=O)CNC(=O)[C@H](CCC(=O)O)NC(=O)C(C)(C)NC(=O)[C@@H](N)Cc1c[nH]cn1)[C@@H](C)O)[C@@H](C)O)C(C)C)C(=O)N[C@@H](C)C(=O)N[C@@H](Cc1c[nH]c2ccccc12)C(=O)N[C@@H](CC(C)C)C(=O)N[C@H](C(=O)N[C@@H](CCCNC(=N)N)C(=O)NC(C)(C)C(=O)N[C@@H](CCCNC(=N)N)C(N)=O)C(C)C [SEQ ID NO: 55]
- EC50 (pancreatic β cells): < 10 µM

SMILES: CC(=O)CC(C)=O [β-diketone 2]
- Kd (m38C2): 38 µM
- Kd (h38C2): 7.6 µM

The remaining lines, values ahead:

- EC50 (pancreatic β cells): < 10 µM
SMILES: CC[C@H](C)[C@H](NC(=O)[C@H](Cc1ccccc1)NC(=O)[C@H](CCC(=O)O)NC(=O)[C@H](CCCCN)NC(=O)[C@@H](NC(=O)[C@H](C)NC(=O)[C@H](CCC(N)=O)NC(=O)[C@H](CCC(=O)O)NC(=O)[C@H](CCC(=O)O)NC(=O)[C@H](CC(C)C)NC(=O)[C@H](Cc1ccc(O)cc1)NC(=O)[C@H](CO)NC(=O)[C@H](CO)NC(=O)[C@@H](NC(=O)[C@H](CC(=O)O)NC(=O)[C@H](CO)NC(=O)[C@@H](NC(=O)[C@H](Cc1ccccc1)NC(=O)[C@@H](NC(=O)CNC(=O)[C@H](CCC(=O)O)NC(=O)C(C)(C)NC(=O)[C@@H](N)Cc1c[nH]cn1)[C@@H](C)O)[C@@H](C)O)C(C)C)C(C)C)C(=O)N[C@@H](C)C(=O)N[C@@H](Cc1c[nH]c2ccccc12)C(=O)N[C@@H](CC(C)C)C(=O)N[C@H](C(=O)N[C@@H](CCCCN)C(=O)NC(C)(C)C(=O)N[C@@H](CCCNC(=N)N)C(N)=O)[C@@H](C)CC [SEQ ID NO: 57]

- EC50 (pancreatic β cells): < 10 µM
SMILES: CC[C@H](C)[C@H](NC(=O)[C@H](Cc1ccccc1)NC(=O)[C@H](CCC(=O)O)NC(=O)[C@H](CCCCN)NC(=O)[C@@H](NC(=O)[C@H](C)NC(=O)[C@H](CCC(N)=O)NC(=O)[C@H](CCC(=O)O)NC(=O)[C@H](CCC(=O)O)NC(=O)[C@H](Cc1ccccc1)NC(=O)[C@H](Cc1ccc(O)cc1)NC(=O)[C@H](CO)NC(=O)[C@H](CO)NC(=O)[C@@H](NC(=O)[C@H](CC(=O)O)NC(=O)[C@H](CO)NC(=O)[C@@H](NC(=O)[C@H](Cc1ccccc1)NC(=O)[C@@H](NC(=O)CNC(=O)[C@H](CCC(=O)O)NC(=O)C(C)(C)NC(=O)[C@@H](N)Cc1c[nH]cn1)[C@@H](C)O)[C@@H](C)O)C(C)C)C(C)C)C(=O)N[C@@H](C)C(=O)N[C@@H](Cc1c[nH]c2ccccc12)C(=O)N[C@@H](CC(C)C)C(=O)N[C@H](C(=O)N[C@@H](CCCCN)C(=O)NC(C)(C)C(=O)N[C@@H](CCCNC(=N)N)C(N)=O)[C@@H](C)CC [SEQ ID NO: 58] (H-H[Aib]EGTFTSDVSSYFEEQAVKEFIAWLIK[Aib]R-NH2)

- EC50 (pancreatic β cells): < 10 µM
SMILES: CC[C@H](C)[C@H](NC(=O)[C@H](Cc1ccccc1)NC(=O)[C@H](CCC(=O)O)NC(=O)[C@H](CCCCN)NC(=O)[C@@H](NC(=O)[C@H](C)NC(=O)[C@H](CCC(N)=O)NC(=O)[C@H](CCC(=O)O)NC(=O)[C@H](CCC(=O)O)NC(=O)[C@H](Cc1ccc(O)cc1)NC(=O)[C@H](Cc1ccc(O)cc1)NC(=O)[C@H](CO)NC(=O)[C@H](CO)NC(=O)[C@@H](NC(=O)[C@H](CC(=O)O)NC(=O)[C@H](CO)NC(=O)[C@@H](NC(=O)[C@H](Cc1ccccc1)NC(=O)[C@@H](NC(=O)CNC(=O)[C@H](CCC(=O)O)NC(=O)C(C)(C)NC(=O)[C@@H](N)Cc1c[nH]cn1)[C@@H](C)O)[C@@H](C)O)C(C)C)C(C)C)C(=O)N[C@@H](C)C(=O)N[C@@H](Cc1c[nH]c2ccccc12)C(=O)N[C@@H](CC(C)C)C(=O)N[C@H](C(=O)N[C@@H](CCCCN)C(=O)NC(C)(C)C(=O)N[C@@H](CCCNC(=N)N)C(N)=O)[C@@H](C)CC [SEQ ID NO: 59] (H-H[Aib]EGTFTSDVSSYYEEQAVKEFIAWLIK[Aib]R-NH2)

- EC50 (pancreatic β cells): < 10 µM
SMILES: CC[C@H](C)[C@H](NC(=O)[C@H](Cc1ccccc1)NC(=O)[C@H](CCC(=O)O)NC(=O)[C@H](CCCCN)NC(=O)[C@@H](NC(=O)[C@H](C)NC(=O)[C@H](CCC(N)=O)NC(=O)[C@H](CCC(=O)O)NC(=O)[C@H](CCC(=O)O)NC(=O)[C@H](Cc1c[nH]c2ccccc12)NC(=O)[C@H](Cc1ccc(O)cc1)NC(=O)[C@H](CO)NC(=O)[C@H](CO)NC(=O)[C@@H](NC(=O)[C@H](CC(=O)O)NC(=O)[C@H](CO)NC(=O)[C@@H](NC(=O)[C@H](Cc1ccccc1)NC(=O)[C@@H](NC(=O)CNC(=O)[C@H](CCC(=O)O)NC(=O)C(C)(C)NC(=O)[C@@H](N)Cc1c[nH]cn1)[C@@H](C)O)[C@@H](C)O)C(C)C)C(C)C)C(=O)N[C@@H](C)C(=O)N[C@@H](Cc1c[nH]c2ccccc12)C(=O)N[C@@H](CC(C)C)C(=O)N[C@H](C(=O)N[C@@H](CCCCN)C(=O)NC(C)(C)C(=O)N[C@@H](CCCNC(=N)N)C(N)=O)[C@@H](C)CC [SEQ ID NO: 60] (H-H[Aib]EGTFTSDVSSYWEEQAVKEFIAWLIK[Aib]R-NH2)

- EC50 (pancreatic β cells): < 10 µM
SMILES: CC[C@H](C)[C@H](NC(=O)[C@H](Cc1ccccc1)NC(=O)[C@H](CCC(=O)O)NC(=O)[C@H](CCCCN)NC(=O)[C@@H](NC(=O)[C@H](C)NC(=O)[C@H](CCC(N)=O)NC(=O)[C@H](CCC(=O)O)NC(=O)[C@H](CCC(=O)O)NC(=O)[C@H](CC(C)C)NC(=O)[C@H](Cc1ccc(O)cc1)NC(=O)[C@H](CO)NC(=O)[C@H](CO)NC(=O)[C@@H](NC(=O)[C@H](CC(=O)O)NC(=O)[C@H](CO)NC(=O)[C@@H](NC(=O)[C@H](Cc1ccccc1)NC(=O)[C@@H](NC(=O)CNC(=O)[C@H](CCC(=O)O)NC(=O)C(C)(C)NC(=O)[C@@H](N)Cc1c[nH]cn1)[C@@H](C)O)[C@@H](C)O)C(C)C)C(C)C)C(=O)N[C@@H](C)C(=O)N[C@@H](Cc1c[nH]c2ccccc12)C(=O)N[C@@H](CC(C)C)C(=O)N[C@H](C(=O)N[C@@H](CCCNC(=N)N)C(=O)NC(C)(C)C(=O)N[C@@H](CCCNC(=N)N)C(N)=O)[C@@H](C)CC [SEQ ID NO: 61] (H-H[Aib]EGTFTSDVSSYLEEQAVKEFIAWLIR[Aib]R-NH2)

- EC50 (pancreatic β cells): < 10 µM
SMILES: CC[C@H](C)[C@H](NC(=O)[C@H](Cc1ccccc1)NC(=O)[C@H](CCC(=O)O)NC(=O)[C@H](CCCNC(=N)N)NC(=O)[C@@H](NC(=O)[C@H](C)NC(=O)[C@H](CCC(N)=O)NC(=O)[C@H](CCC(=O)O)NC(=O)[C@H](CCC(=O)O)NC(=O)[C@H](CC(C)C)NC(=O)[C@H](Cc1ccc(O)cc1)NC(=O)[C@H](CO)NC(=O)[C@H](CO)NC(=O)[C@@H](NC(=O)[C@H](CC(=O)O)NC(=O)[C@H](CO)NC(=O)[C@@H](NC(=O)[C@H](Cc1ccccc1)NC(=O)[C@@H](NC(=O)CNC(=O)[C@H](CCC(=O)O)NC(=O)C(C)(C)NC(=O)[C@@H](N)Cc1c[nH]cn1)[C@@H](C)O)[C@@H](C)O)C(C)C)C(C)C)C(=O)N[C@@H](C)C(=O)N[C@@H](Cc1c[nH]c2ccccc12)C(=O)N[C@@H](CC(C)C)C(=O)N[C@H](C(=O)N[C@@H](CCCNC(=N)N)C(=O)NC(C)(C)C(=O)N[C@@H](CCCNC(=N)N)C(N)=O)[C@@H](C)CC [SEQ ID NO: 62] (H-H[Aib]EGTFTSDVSSYLEEQAVREFIAWLIR[Aib]R-NH2)
